Consider 30 compounds from patent US20230167073A1 (Teijin Pharma Limited, priority 2020, published 2023).

The target in this experiment is T1, Human TRPC6 (Homo sapiens, UniProt Q9Y210).
T1 construct: expressed in transfected cells
T1 sequence (Q9Y210 1-931): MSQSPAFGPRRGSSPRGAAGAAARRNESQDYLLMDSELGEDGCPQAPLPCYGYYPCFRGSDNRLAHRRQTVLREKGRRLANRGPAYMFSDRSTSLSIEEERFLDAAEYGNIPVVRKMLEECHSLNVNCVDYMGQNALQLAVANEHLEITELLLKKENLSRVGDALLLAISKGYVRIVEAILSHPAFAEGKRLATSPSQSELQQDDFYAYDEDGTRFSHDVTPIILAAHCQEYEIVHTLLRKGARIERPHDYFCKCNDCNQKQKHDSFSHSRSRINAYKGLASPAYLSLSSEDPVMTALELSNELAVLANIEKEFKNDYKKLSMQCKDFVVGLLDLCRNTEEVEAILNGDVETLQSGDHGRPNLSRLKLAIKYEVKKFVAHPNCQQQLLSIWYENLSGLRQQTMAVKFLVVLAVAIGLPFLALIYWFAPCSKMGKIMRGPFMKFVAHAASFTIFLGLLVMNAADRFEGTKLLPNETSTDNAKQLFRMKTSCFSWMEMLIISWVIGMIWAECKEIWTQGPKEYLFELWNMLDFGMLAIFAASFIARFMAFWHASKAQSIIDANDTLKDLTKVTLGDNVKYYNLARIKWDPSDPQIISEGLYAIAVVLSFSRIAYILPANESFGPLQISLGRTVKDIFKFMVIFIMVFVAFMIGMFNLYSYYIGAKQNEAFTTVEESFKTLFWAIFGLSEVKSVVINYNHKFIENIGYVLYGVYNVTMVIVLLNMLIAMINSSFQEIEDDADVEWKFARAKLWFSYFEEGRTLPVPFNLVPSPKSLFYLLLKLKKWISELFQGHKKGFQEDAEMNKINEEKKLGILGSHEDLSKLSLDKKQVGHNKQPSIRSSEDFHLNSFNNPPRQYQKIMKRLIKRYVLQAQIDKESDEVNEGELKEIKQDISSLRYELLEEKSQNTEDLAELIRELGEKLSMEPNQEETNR
Kind of experiment: Evaluation of TRPC6 channel inhibitory activity (1), FLIPR Calcium 5 Assay Kit, OAG stimulation (Compound Nos. 1-1293). It counts as cell-based. The following applies: Human TRPC6 stably-expressing cells, OAG 30 μM, FLIPR Calcium 5 Assay Kit; read-out: Inhibitory activity (pIC50 class) (converted). In short, it runs like this: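 Cells stably expressing human TRPC6, plated 24 h before, were loaded 30 min with Calcium 5 dye plus probenecid in HEPES-HBSS. Compound was added 20 min before OAG (30 μM final) and fluorescence tracked on FLIPR. Inhibition normalised to no-compound and no-compound/no-OAG wells; pIC50 from four-parameter fit, reported as +/++/+++ categories.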

Turning to `Cc1nc(NC2CCOCC2)cc(Oc2cc(C#N)ccc2-c2ncc(CN)cn2)n1` [compound 635, 4-[5-(aminomethyl)pyrimidin-2-yl]-3-[2-methyl-6-(oxan-4 ylamino)pyrimidin-4-yl]oxybenzonitrile], the IC50 is > 1000 nM.

For `Cc1nc(NCC2CCOCC2)cc(Oc2cc(C#N)ccc2-c2ncc(CN)cn2)n1` [compound 636, 4-[5-(aminomethyl)pyrimidin-2-yl]-3-[2-methyl-6-(oxan-4-ylmethylamino)pyrimidin-4-yl]oxybenzonitrile], the IC50 is > 1000 nM.

With `Cc1nc(NC(C)(C)C)cc(Oc2cc(C#N)ccc2-c2ncc(CN)cn2)n1` [compound 637, 4-[5-(aminomethyl)pyrimidin-2-yl]-3-[6-(tert-butylamino)-2-methylpyrimidin-4-yl]oxybenzonitrile], the IC50 was < 10 nM.

With `Cc1cc(Oc2cc(C#N)ccc2-c2cc(CCN)ccn2)cc(N2CCOCC2)n1` [compound 638, 4-[4-(2-aminoethyl)pyridin-2-yl]-3-(2-methyl-6-morpholin-4-ylpyridin-4-yl)oxybenzonitrile], the IC50 was 10 to 1000 nM.

On to `COCCNc1cc(Oc2cc(C#N)ccc2-c2ncc(CN)cn2)nc(C)n1` [compound 639, 4-[5-(aminomethyl)pyrimidin-2-yl]-3-[6-(2-methoxyethylamino)-2-methylpyrimidin-4-yl]oxybenzonitrile], for which the IC50 was > 1000 nM.

Take `Cc1nc(NCC(F)(F)F)cc(Oc2cc(C#N)ccc2-c2ncc(CN)cn2)n1` [compound 640, 4-[5-(aminomethyl)pyrimidin-2-yl]-3-[2-methyl-6-(2,2,2-trifluoroethylamino)pyrimidin-4-yl]oxybenzonitrile]: the IC50 is 10 to 1000 nM.

For `Cn1nc(C2CC2)cc1Oc1cc(C#N)ccc1-c1ccc(CN)n2cnnc12` [compound 641, 4-[5-(aminomethyl)-[1,2,4]triazolo[4,3-a]pyridin-8-yl]-3-(5-cyclopropyl-2-methylpyrazol-3-yl)oxybenzonitrile], the IC50 was 10 to 1000 nM.

For the compound `Cn1nc(-c2ccccn2)cc1Oc1cc(C#N)ccc1-c1cc(CN)ccn1` [compound 642, 4-[4-(aminomethyl)pyridin-2-yl]-3-(2-methyl-5-pyridin-2-ylpyrazol-3-yl)oxybenzonitrile], the IC50 is < 10 nM.

Regarding `CCNc1cc(Oc2cc(C#N)ccc2-c2ncc(CN)cn2)cc(C)n1` [compound 643, 4-[5-(aminomethyl)pyrimidin-2-yl]-3-[2-(ethylamino)-6-methylpyridin-4-yl]oxybenzonitrile], the IC50 is 10 to 1000 nM.

As for `Cc1cc(Oc2cc(C#N)ccc2-c2ncc(CN)cn2)cc(NC(C)C)n1` [compound 644, 4-[5-(aminomethyl)pyrimidin-2-yl]-3-[2-methyl-6-(propan-2-ylamino)pyridin-4-yl]oxybenzonitrile], the IC50 was < 10 nM.

In the case of `Cc1cc(Oc2cc(C#N)ccc2-c2ccc(CN)cn2)cc(NC2CC2)n1` [compound 645, 4-[5-(aminomethyl)pyridin-2-yl]-3-[2-(cyclopropylamino)-6-methylpyridin-4-yl]oxybenzonitrile], the IC50 was 10 to 1000 nM.

For `Cc1cc(Oc2cc(C#N)ccc2-c2ncc(CN)cn2)cc(NC2CC2)n1` [compound 646, 4-[5-(aminomethyl)pyrimidin-2-yl]-3-[2-(cyclopropylamino)-6-methylpyridin-4-yl]oxybenzonitrile], the IC50 is 10 to 1000 nM.

On to `Cc1cc(Oc2cc(C#N)ccc2-c2ccc(CN)cn2)cc(NC2CCOCC2)n1` [compound 647, 4-[5-(aminomethyl)pyridin-2-yl]-3-[2-methyl-6-(oxan-4-ylamino)pyridin-4-yl]oxybenzonitrile], for which the IC50 is > 1000 nM.

`Cc1cc(Oc2cc(C#N)ccc2-c2ncc(CN)cn2)cc(NC2CCOCC2)n1` [compound 648, 4-[5-(aminomethyl)pyrimidin-2-yl]-3-[2-methyl-6-(oxan-4-ylamino)pyridin-4-yl]oxybenzonitrile]: the IC50 is > 1000 nM.

Take `Cn1nc(-c2ncccc2F)cc1Oc1cc(C#N)ccc1-c1ncc(CN)cn1` [compound 649, 4-[5-(aminomethyl)pyrimidin-2-yl]-3-[5-(3-fluoropyridin-2-yl)-2-methylpyrazol-3-yl]oxybenzonitrile]: the IC50 was 10 to 1000 nM.

As for `Cc1cccc(-c2cc(Oc3cc(C#N)ccc3-c3ncc(CN)cn3)n(C)n2)n1` [compound 650, 4-[5-(aminomethyl)pyrimidin-2-yl]-3-[2-methyl-5-(6-methylpyridin-2-yl)pyrazol-3-yl]oxybenzonitrile], the IC50 was 10 to 1000 nM.

With `Cn1nc(-c2ccc(F)cn2)cc1Oc1cc(C#N)ccc1-c1ncc(CN)cn1` [compound 651, 4-[5-(aminomethyl)pyrimidin-2-yl]-3-[5-(5-fluoropyridin-2-yl)-2-methylpyrazol-3-yl]oxybenzonitrile], the IC50 was < 10 nM.

Consider `Cc1ccnc(-c2cc(Oc3cc(C#N)ccc3-c3ncc(CN)cn3)n(C)n2)c1` [compound 652, 4-[5-(aminomethyl)pyrimidin-2-yl]-3-[2-methyl-5-(4-methylpyridin-2-yl)pyrazol-3-yl]oxybenzonitrile], for which the IC50 is < 10 nM.

For the compound `Cc1nc(Oc2cc(C#N)ccc2-c2ncc(CN)cn2)cc(N2CC(F)(F)C2)n1` [compound 653, 4-[5-(aminomethyl)pyrimidin-2-yl]-3-[6-(3,3-difluoroazetidin-1-yl)-2-methylpyrimidin-4-yl]oxybenzonitrile], the IC50 is 10 to 1000 nM.

Regarding `Cc1nc(Oc2cc(C#N)ccc2-c2ccc(CCN)cn2)cc(N2CCN(S(C)(=O)=O)CC2)n1` [compound 654, 4-[5-(2-aminoethyl)pyridin-2-yl]-3-[2-methyl-6-(4-methylsulfonylpiperazin-1-yl)pyrimidin-4-yl]oxybenzonitrile], the IC50 was > 1000 nM.

For `CCN(CC)c1cc(Oc2cc(C#N)ccc2-c2ncc(CN)cn2)n(C)n1` [compound 655, 4-[5-(aminomethyl)pyrimidin-2-yl]-3-[5-(diethylamino)-2-methylpyrazol-3-yl]oxybenzonitrile], the IC50 is < 10 nM.

Take `CCN(CC)c1cc(Oc2cc(C#N)ccc2-c2ncc(CCN)cn2)n(C)n1` [compound 656, 4-[5-(2-aminoethyl)pyrimidin-2-yl]-3-[5-(diethylamino)-2-methylpyrazol-3-yl]oxybenzonitrile]: the IC50 was < 10 nM.

Turning to `Cc1nc(Oc2cc(C#N)ccc2-c2ccc(CN)cn2)cc(N2CCCC2)n1` [compound 657, 4-[5-(aminomethyl)pyridin-2-yl]-3-(2-methyl-6-pyrrolidin-1-ylpyrimidin-4-yl)oxybenzonitrile], the IC50 is < 10 nM.

In the case of `Cc1nc(Oc2cc(C#N)ccc2-c2ncc(CN)cn2)cc(N2CCCC2)n1` [compound 658, 4-[5-(aminomethyl)pyrimidin-2-yl]-3-(2-methyl-6-pyrrolidin-1-ylpyrimidin-4-yl)oxybenzonitrile], the IC50 is 10 to 1000 nM.

As for `Cc1nc(Oc2cc(C#N)ccc2-c2ccc(CN)cn2)cc(N(C)C)n1` [compound 659, 4-[5-(aminomethyl)pyridin-2-yl]-3-[6-(dimethylamino)-2-methylpyrimidin-4-yl]oxybenzonitrile], the IC50 was 10 to 1000 nM.

For `Cc1nc(Oc2cc(C#N)ccc2-c2ncc(CN)cn2)cc(N(C)C)n1` [compound 660, 4-[5-(aminomethyl)pyrimidin-2-yl]-3-[6-(dimethylamino)-2-methylpyrimidin-4-yl]oxybenzonitrile], the IC50 was > 1000 nM.

In the case of `Cc1cc(Oc2cc(C#N)ccc2-c2ncc(CNC(C)(C)C)cn2)cc(N2CCOCC2)n1` [compound 661, 4-[5-[(tert-butylamino)methyl]pyrimidin-2-yl]-3-(2-methyl-6-morpholin-4-ylpyridin-4-yl)oxybenzonitrile], the IC50 was > 1000 nM.

For `Cn1nc(-c2ccccn2)cc1Oc1cc(C#N)ccc1-c1ncc(CNC2CC2)cn1` [compound 662, 4-[5-[(cyclopropylamino)methyl]pyrimidin-2-yl]-3-(2-methyl-5-pyridin-2-ylpyrazol-3-yl)oxybenzonitrile], the IC50 was 10 to 1000 nM.

As for `CC(C)NCc1cnc(-c2ccc(C#N)cc2Oc2cc(-c3ccccn3)nn2C)nc1` [compound 663, 3-(2-methyl-5-pyridin-2-ylpyrazol-3-yl)oxy-4-[5-[(propan-2-ylamino)methyl]pyrimidin-2-yl]benzonitrile], the IC50 is 10 to 1000 nM.

With `Cn1nc(-c2ccccn2)cc1Oc1cc(C#N)ccc1-c1ncc(CNC(C)(C)C)cn1` [compound 664, 4-[5-[(tert-butylamino)methyl]pyrimidin-2-yl]-3-(2-methyl-5-pyridin-2-ylpyrazol-3-yl)oxybenzonitrile], the IC50 was 10 to 1000 nM.
